# Article PMC3199943, “Screening the MayBridge Rule of 3 Fragment Library for Compounds That Interact with the Trypanosoma brucei myo-Inositol-3-Phosphate Synthase and/or Show Trypanocidal Activity” (Molecular Biology International, 2011)
# Where a name gives a salt, the structure may show the parent alone. Read-outs that look alike come from different tables or passages of the source.
# Key:
# HeLa cells = test: cells; details: for viability at 500 µM: 65 h; for HeLa Cells Alamar Blue: Supplementary Table 1
# Procedure, shortened: (§1)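 Seed HeLa/A549 at 2 × 10^4 cells/well in DMEM/10% FCS/2 mM L-Gln; treat ~65 h; add Alamar Blue, 5 h more.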
# A549 cells = test: Cytotoxicity against A549 cells, Alamar Blue; assay type: cell-based; details: Supplementary Table 1, compound 0.5 mM, percentage of controls (n=1); for viability at 500 µM: Homo sapiens, A549, 65 h
# Procedure, shortened: as §1
# TbINO1 = biological target: T1, TbINO1 (Trypanosoma brucei brucei, UniProt Q5QQ46); test: biochemical; assay type: binding
# T1 sequence (Q5QQ46 1-528): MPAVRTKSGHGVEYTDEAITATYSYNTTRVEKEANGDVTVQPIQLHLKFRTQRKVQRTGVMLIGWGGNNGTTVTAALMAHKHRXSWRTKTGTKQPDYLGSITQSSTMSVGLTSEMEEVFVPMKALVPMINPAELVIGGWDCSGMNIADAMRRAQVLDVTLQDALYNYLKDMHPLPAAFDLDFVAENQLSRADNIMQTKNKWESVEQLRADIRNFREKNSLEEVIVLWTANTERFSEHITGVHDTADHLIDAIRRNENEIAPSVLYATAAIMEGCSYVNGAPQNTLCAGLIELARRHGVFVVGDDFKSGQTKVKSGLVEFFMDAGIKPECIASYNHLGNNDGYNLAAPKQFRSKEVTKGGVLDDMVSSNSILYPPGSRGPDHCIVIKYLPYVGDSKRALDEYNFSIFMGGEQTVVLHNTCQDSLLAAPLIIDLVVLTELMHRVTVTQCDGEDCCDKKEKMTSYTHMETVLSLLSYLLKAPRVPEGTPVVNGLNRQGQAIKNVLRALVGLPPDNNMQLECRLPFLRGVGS
# [1] = Homo sapiens, HeLa, read-out: HeLa Cells Alamar Blue (% survival), compound 0.5 mM, percentage of controls
# [2] = Homo sapiens, HeLa, read-out: HeLa Cells Alamar Blue, Supplementary Table 1, compound 0.5 mM, percentage of controls, mean ± SD (n=3) or SE (n=2)
# [3] = compound 0.5 mM, percentage of controls, mean ± SD (n=3) or SE (n=2)
# [4] = Supplementary Table 1, compound 1mM, mean ± SD from Boltzman curve fitting
# [5] = Homo sapiens, HeLa, read-out: HeLa Cells Alamar Blue
# [6] = Homo sapiens, HeLa, read-out: HeLa Cells Alamar Blue (% survival)
# [7] = read-out: Tb Ino1 Tm Shift [˚C]
SMILES,viability at 500 µM (A549 cells),viability at 500 µM (HeLa cells; [5]),ΔTm at 1000 µM (TbINO1; [7]),other results
"NCc1nc2ccccc2s1 [compound 626, 1,3-benzothiazol-2-ylmethylamine hydrochloride]",85.7%,,,viability at 500 µM (HeLa cells; [1]): 95.1 ± 15.5%; viability at 500 µM (HeLa cells; [2]): 95.1 ± 15.5%; ΔTm at 1000 µM (TbINO1; read-out: TbIno1 Tm shift [°C]): 2.03 ± 0.08 °C
"COC(=O)c1sccc1O [compound 247, methyl 3‐hydroxythiophene‐2‐carboxylate]",,,,HeLa Cells Alamar Blue (HeLa cells; [3]): 95.4 ± 6.1 percentage of controls; A549 Cells Alamar Blue (A549 cells): 108.7 percentage of controls; Tb Ino1 Tm Shift [˚C] (TbINO1; [4]): 0.2 ± 0.07 °C
"Cc1cc(CO)c(-c2ccccc2)o1 [compound 522, (5-methyl-2-phenyl-3-furyl)methanol]",27.1%,24.3 ± 17.4%,,viability at 500 µM (HeLa cells; [6]): 24.3 ± 17.4%; ΔTm at 1000 µM (TbINO1; read-out: TbIno1 Tm shift [°C]): 1.61 ± 0.06 °C
"O=C(O)c1cc2sccc2[nH]1 [compound 328, 4H-thieno[3,2-b]pyrrole-5-carboxylic acid]",136%,,,viability at 500 µM (HeLa cells; [1]): 106 ± 6.9%; viability at 500 µM (HeLa cells; [2]): 106 ± 6.9%; ΔTm at 1000 µM (TbINO1; read-out: TbIno1 Tm shift [°C]): 2.29 ± 0.1 °C
"OCc1ccc(N2CCCC2)cc1 [compound 427, [4‐(1‐pyrrolidinyl)phenyl]methanol]",64.2%,59.8 ± 14.4%,0.35 ± 0.06 °C,
"OCc1cn2ccsc2n1 [compound 221, imidazo[2,1‐b]thiazol‐6‐ylmethanol]",99.5%,107 ± 7.6%,0.09 ± 0.23 °C,
"ON=C1CCCc2ccccc21 [compound 279, 1,2,3,4‐tetrahydronaphthalen‐1‐one oxime]",,,,HeLa Cells Alamar Blue (HeLa cells; [3]): 19.9 ± 19.7 percentage of controls; A549 Cells Alamar Blue (A549 cells): 16.9 percentage of controls; Tb Ino1 Tm Shift [˚C] (TbINO1; [4]): 0.76 ± 0.08 °C
"CC(=O)c1cc(Cl)sc1Cl [compound 590, 1‐(2,5‐dichloro‐3‐thienyl)ethan‐1‐one]",130%,97.7 ± 13.9%,0.3 ± 0.07 °C,
"O=C(O)CCC(=O)c1cccs1 [compound 478, 4-oxo-4-(2-thienyl)butanoic acid]",92.3%,106 ± 9.3%,,viability at 500 µM (HeLa cells; [6]): 106 ± 9.3%; ΔTm at 1000 µM (TbINO1; read-out: TbIno1 Tm shift [°C]): 2.58 ± 0.05 °C
"N#Cc1ccccc1Oc1ccccc1 [compound 591, 2‐phenoxybenzonitrile]",58.3%,93 ± 2.5%,0.24 ± 0.06 °C,
"O=C(O)c1ccco1 [compound 27, 2‐furoic acid]",107%,95.7 ± 9.4%,0.17 ± 0.06 °C,
"CC1(C)Cc2cccc(C(=O)O)c2O1 [compound 564, 2,2‐dimethyl‐2,3‐dihydro‐1‐benzofuran‐7‐carboxylic acid]",,,,HeLa Cells Alamar Blue (HeLa cells; [3]): 91.1 ± 19 percentage of controls; A549 Cells Alamar Blue (A549 cells): 101.2 percentage of controls; Tb Ino1 Tm Shift [˚C] (TbINO1; [4]): 0.35 ± 0.07 °C
"COC(=O)c1cccs1 [compound 138, methyl thiophene‐2‐carboxylate]",121%,89.4 ± 9.3%,0.31 ± 0.05 °C,
"Oc1ccc(F)c(Cl)c1 [compound 160, 3‐chloro‐4‐fluorophenol]",77.4%,94.9 ± 15.3%,0.02 ± 0.05 °C,
"O=C(O)CCc1cccs1 [compound 237, 3‐(2‐thienyl)propanoic acid]",70.9%,113 ± 7.8%,0.22 ± 0.07 °C,
"OCc1ccc(N2CCOCC2)cc1 [compound 578, (4‐morpholin‐4‐yl‐phenyl)‐methanol]",75.4%,42.3 ± 9%,0.17 ± 0.08 °C,
"Nc1cc(F)ccc1-n1ccnc1 [compound 420, 5‐fluoro‐2‐(1H‐imidazol‐1‐yl)aniline]",100%,98.2 ± 10.9%,0.36 ± 0.07 °C,
"O=C(O)c1cccc(N2CCCCC2)c1 [compound 663, 3‐piperidinobenzoic acid]",104%,97.9 ± 1.5%,1.23 ± 0.07 °C,
"CC(=O)Nc1ccc2c(c1)CCC2=O [compound 535, N1‐(1‐oxo‐2,3‐dihydro‐1H‐inden‐5‐yl)acetamide]",,,,HeLa Cells Alamar Blue (HeLa cells; [3]): 87.3 ± 4.6 percentage of controls; A549 Cells Alamar Blue (A549 cells): 76.5 percentage of controls; Tb Ino1 Tm Shift [˚C] (TbINO1; [4]): 0.21 ± 0.07 °C
"N#Cc1cc(N)ccc1-n1cccc1 [compound 471, 5‐amino‐2‐(1H‐pyrrol‐1‐yl)benzonitrile]",81.4%,89.3 ± 18.8%,0.1 ± 0.08 °C,
"C1CNCCNC1 [compound 13, 1,4‐diazepane]",82.4%,88.5 ± 11.1%,0.4 ± 0.07 °C,

SMILES,viability at 500 µM (A549 cells),viability at 500 µM (HeLa cells; [5]),ΔTm at 1000 µM (TbINO1; [7]),other results
"Cc1ccc(C#N)c(N)c1 [compound 97, 2-amino-4-methylbenzonitrile]",96.2%,81.4 ± 7.4%,,viability at 500 µM (HeLa cells; [6]): 81.4 ± 7.4%; ΔTm at 1000 µM (TbINO1; read-out: TbIno1 Tm shift [°C]): 1.58 ± 0.07 °C
"Cn1cncc1C#N [compound 15, 1‐methyl‐1H‐imidazole‐5‐carbonitrile]",90%,101 ± 9.5%,0.08 ± 0.07 °C,
"COC(=O)c1cccc(N)c1 [compound 194, methyl 3‐aminobenzoate]",38.9%,88.3 ± 9.2%,0.78 ± 0.06 °C,
"Cc1cc(C(=O)O)c(C)o1 [compound 130, 2,5‐dimethyl‐3‐furoic acid]",121%,84.7 ± 0.7%,0.62 ± 0.08 °C,
"Nc1ccccc1-n1ccnc1 [compound 262, 2‐(1H‐imidazol‐1‐yl)aniline]",76%,66.5 ± 16.1%,0.62 ± 0.08 °C,
"N#Cc1ccnc(N2CCSCC2)c1 [compound 668, 2‐thiomorpholinoisonicotinonitrile]",98.5%,80.3 ± 19.6%,1.06 ± 0.07 °C,
"O=C(O)[C@H]1CCCN1 [compound 37, D‐proline]",78.6%,94.8 ± 10.1%,0.41 ± 0.06 °C,
"CC(=O)c1cc[nH]c1 [compound 20, 1-(1H-pyrrol-3-yl)ethan-1-one]",121%,102 ± 4.3%,,"viability at 500 µM (HeLa cells; [6]): 102 ± 4.3%; CC50 (HeLa cells; Homo sapiens, HeLa, read-out: HeLa ED50): > 5 mM; ΔTm at 1000 µM (TbINO1; read-out: TbIno1 Tm shift [°C]): 1.88 ± 0.08 °C"
"Cc1cc(C(N)=S)n(C)n1 [compound 227, 1,3‐dimethyl‐1H‐pyrazole‐5‐carbothioamide]",,,,HeLa Cells Alamar Blue (HeLa cells; [3]): 106.7 ± 5.8 percentage of controls; A549 Cells Alamar Blue (A549 cells): 50.9 percentage of controls; Tb Ino1 Tm Shift [˚C] (TbINO1; [4]): 0.57 ± 0.1 °C
"Cc1cc(O)nc2ccccc12 [compound 258, 4‐methyl‐2‐quinolinol]",90.7%,92.7 ± 13.6%,0.17 ± 0.06 °C,
"CC(=O)c1cc(F)cc(F)c1O [compound 360, 1‐(3,5‐difluoro‐2‐hydroxyphenyl)ethan‐1‐one]",,,,HeLa Cells Alamar Blue (HeLa cells; [3]): 103.5 ± 10 percentage of controls; A549 Cells Alamar Blue (A549 cells): 149.7 percentage of controls; Tb Ino1 Tm Shift [˚C] (TbINO1; [4]): 1.29 ± 0.05 °C
"NCc1ccccc1N1CCOCC1 [compound 571, 2‐morpholinobenzylamine]",70.9%,95 ± 17.5%,0.06 ± 0.07 °C,
"Cc1ccsc1CN [compound 83, (3‐methyl‐2‐thienyl)methylamine]",124%,95.4 ± 10%,0.43 ± 0.06 °C,
"O=C(O)c1c[nH]c2ccccc12 [compound 273, 1H‐indole‐3‐carboxylic acid]",61.8%,85.4 ± 12.2%,0.01 ± 0.05 °C,
"O=C(O)C1NCCS1 (stereo not drawn) [compound 103, 1,3-thiazolane-2-carboxylic acid]",107%,103 ± 6.4%,,viability at 500 µM (HeLa cells; [6]): 103 ± 6.4%; ΔTm at 1000 µM (TbINO1; read-out: TbIno1 Tm shift [°C]): 2.63 ± 0.08 °C
"Nc1ccc(CO)cn1 [compound 66, (6‐amino‐3‐pyridinyl)methanol]",85.1%,80.3 ± 9.7%,0.24 ± 0.09 °C,
"Cc1nc(N)ccc1C#N [compound 102, 6‐amino‐2‐methylnicotinonitrile]",76.1%,69.4 ± 12.4%,0.27 ± 0.06 °C,
"O=C(O)C1Cc2ccccc2N1 (stereo not drawn) [compound 292, indoline-2-carboxylic acid]",78.3%,37.6 ± 25%,,viability at 500 µM (HeLa cells; [6]): 37.6 ± 2.5%; ΔTm at 1000 µM (TbINO1; read-out: TbIno1 Tm shift [°C]): 1.54 ± 0.11 °C
"Nc1ccc(F)cc1F [compound 88, 2,4‐difluoroaniline]",132%,87.6 ± 10.6%,1.11 ± 0.07 °C,
"O=C(O)c1ccc2cc[nH]c2c1 [compound 271, 1H‐indole‐6‐carboxylic acid]",75.6%,,,"viability at 500 µM (HeLa cells; [2]): 111 ± 16.2%; ΔTm at 1000 µM (TbINO1; Supplementary Table 1, compound 1mM, mean ± SD from Boltzman curve fitting, read-out: Tb Ino1 Tm Shift [˚C]): 0.06 ± 0.08 °C"
